US20240287138A1, “CYCLIC PEPTIDES FOR INHIBITING TNF RECEPTOR 1 ACTIVITY” (Merck Sharp & Dohme LLC, priority 2023, published 2024)
Numbered stars: 1 amine (or outer) side, 2 acyl side, 3 side chain; on linkers, the order of the positions; unused ones are H or OH. Bridge positions count the residues as written; N and C are the ends. Square brackets hold non-standard residues; d marks the D form. Peptide text beside a SMILES is read from it. Trp(βS-Me,7-OMe) = COc1cccc2c([C@H](C)[C@H](N)C(=O)O)c[nH]c12; Trp(βS-Me) = C[C@@H](c1c[nH]c2ccccc12)[C@H](N)C(=O)O; Phe(4-SO3H) = N[C@@H](Cc1ccc(S(=O)(=O)O)cc1)C(=O)O; Trp(7-CN) = N#Cc1cccc2c(C[C@H](N)C(=O)O)c[nH]c12; Trp(7-Cl) = N[C@@H](Cc1c[nH]c2c(Cl)cccc12)C(=O)O; Ala(piperazin-1-yl) = N[C@@H](CN1CCNCC1)C(=O)O; Phe(4-CONH2) = NC(=O)c1ccc(C[C@H](N)C(=O)O)cc1; Phe(4-COOH) = N[C@@H](Cc1ccc(C(=O)O)cc1)C(=O)O; 4Pal(3S-Me) = C[C@@H](c1ccncc1)[C@H](N)C(=O)O; Phe(4-CH2NH2) = NCc1ccc(C[C@H](N)C(=O)O)cc1; αMeW = C[C@](N)(Cc1c[nH]c2ccccc12)C(=O)O; Lys(N3) = [N-]=[N+]=NCCCC[C@H](N)C(=O)O; X1 = O=C([C@@H]1CC[C@H](N[*:1])C1)[*:2]; dPro(3S-OH) = O=C(O)[C@@H]1NCC[C@@H]1O; 2Nal = N[C@@H](Cc1ccc2ccccc2c1)C(=O)O; Pip(4-aza) = O=C(O)[C@@H]1CNCCN1; 3Pal = N[C@@H](Cc1cccnc1)C(=O)O; 4Pal = N[C@@H](Cc1ccncc1)C(=O)O; NMeE = CN[C@@H](CCC(=O)O)C(=O)O; dHyp = O=C(O)[C@H]1C[C@H](O)CN1; Ahp(2) = CCCCC[C@H](N)C(=O)O; αMeS = C[C@](N)(CO)C(=O)O; Nle = CCCC[C@H](N)C(=O)O; Dap = NC[C@H](N)C(=O)O; Sar = CNCC(=O)O

Target: T1, human soluble TNFR1 (sTNFR1) (Homo sapiens, UniProt P19438)
T1 construct: made in house; host or cells: Sf21 (baculovirus)
T1 sequence (P19438 with tags, fused parts or gaps): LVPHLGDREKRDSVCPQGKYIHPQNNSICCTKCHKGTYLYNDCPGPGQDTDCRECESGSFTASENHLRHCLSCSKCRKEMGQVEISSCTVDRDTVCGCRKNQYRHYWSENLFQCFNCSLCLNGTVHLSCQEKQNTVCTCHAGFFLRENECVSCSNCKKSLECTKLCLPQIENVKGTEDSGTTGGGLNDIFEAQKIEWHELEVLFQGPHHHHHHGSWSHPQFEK
Test: Human sTNFR1-peptide displacement assay (LanthaScreen Eu TR-FRET binding assay)
Protocol: A. Procedure for Human sTNFR1-Peptide Displacement Assay
The affinity was determined using LanthaScreen Eu-based time-resolved fluorescence resonance energy transfer (TR-FRET)-based binding assay.
A TR-FRET assay measuring the displacement of biotinylated peptide SEQ ID NO. 1 from human soluble TNFR1 (sTNFR1) in a pre-formed complex by a macrocyclic peptide yields the affinity (Kd^app) of the cyclic peptide for sTNFR1. The reagents for the assay include: the C′-terminally 6His-tagged sTNFR1 (residues 1-211) protein purified from a Sf21 baculovirus expression system, the biotin-tagged B0372 peptide described in section “Preparation of Final Compounds”, part E, the LanthaScreen™ anti-His Tag Europium donor (Life Technologies Corporation (San Diego, CA), cat. #PV5597), and a streptavidin-conjugate Alexa Fluor™ 647 acceptor (Invitrogen (Waltham, MA), cat. #S32357). Time-resolved TR-FRET is achieved when sTNFR1 is bound to biotinylated peptide SEQ ID NO. 1 through coupling of the donor and acceptor FRET pair.
100 nM biotinylated peptide SEQ ID NO. […] 100 nM biotinylated peptide SEQ ID NO. 1 was chosen as it reflects the ˜Kd for this complex. After 30 min at ambient temperature, each test peptide (2 mM stock in DMSO) is titrated in a 20 point, ˜3-fold discrete dose-response using an acoustic-dispense liquid handler. Specifically, 80 nL of peptide/DMSO is transferred into a ProxiPlate-384 Plus 384-well assay plate (PerkinElmer, cat. #6008289). To this plate, 8 μL of the previously formed sTNFR 1-biotinylated peptide SEQ ID NO. 1 complex is added and allowed to reach binding equilibrium with the test peptide at ambient temperature for 90 min.
The TR-FRET signal is measured with the following EnVision® settings: excitation laser at 337 nm; emission1=615 nm, emission2=665 nm, LANCE/DELFIA dichroic mirror, delay time=[…]. The signal of each well is determined as the ratio of the emission at 665 nm to that at 615 nm. Percent displacement is determined by normalization to control wells containing DMSO (0%) or a saturating concentration of a displaceable peptide (100%). The %-effect as a function of peptide concentration is fit to a five-parameter logistic fit based on the Morrison equation to account for tight binding kinetics.

Question: How did the Kd turn out when CCCC[C@@H]1NC(=O)[C@@H]2CC[C@@H](C2)NC(=O)[C@H]([C@@H](C)c2c[nH]c3c(OC)cccc23)NC(=O)CN(C)C(=O)[C@H](Cc2ccc(O)cc2)NC(=O)[C@H](Cc2ccc(C(=O)O)cc2)NC(=O)[C@](C)(CO)NC(=O)[C@H](Cc2c[nH]c3c(Cl)cccc23)NC(=O)[C@H](Cc2ccc(S(=O)(=O)O)cc2)NC(=O)[C@H](CC(N)=O)NC(=O)[C@H](CCC(=O)O)N(C)C(=O)[C@H](Cc2c[nH]c3ccccc23)NC(=O)[C@@H]2CNCCN2C(=O)[C@H](Cc2ccncc2)NC1=O [SEQ ID NO. 173] (cyclo([4Pal][Pip(4-aza)]W[NMeE]N[Phe(4-SO3H)][Trp(7-Cl)][αMeS][Phe(4-COOH)]Y[Sar][Trp(βS-Me,7-OMe)][X1][Nle])) was run?
Answer: Its Kd is 0.26 nM.

Question: With CCCC[C@@H]1NC(=O)[C@@H]2CC[C@@H](C2)NC(=O)[C@H]([C@@H](C)c2c[nH]c3c(OC)cccc23)NC(=O)CN(C)C(=O)[C@H](Cc2ccc(O)cc2)NC(=O)[C@H](Cc2ccc(C(=O)O)cc2)NC(=O)[C@](C)(CO)NC(=O)[C@H](Cc2c[nH]c3c(Cl)cccc23)NC(=O)[C@H](Cc2ccncc2)NC(=O)[C@H](CC(N)=O)NC(=O)[C@H]2[C@@H](O)CCN2C(=O)[C@H](Cc2c[nH]c3ccccc23)NC(=O)[C@@H]2CNCCN2C(=O)[C@H](Cc2ccncc2)NC1=O [SEQ ID NO. 192] (cyclo([4Pal][Trp(7-Cl)][αMeS][Phe(4-COOH)]Y[Sar][Trp(βS-Me,7-OMe)][X1][Nle][4Pal][Pip(4-aza)]W[dPro(3S-OH)]N)) as the compound, how does the Kd read?
Answer: Its Kd is 0.24 nM.

Question: Which IC50 does the source give for CCCCC[C@@H]1NC(=O)CSC[C@@H](C(N)=O)NC(=O)[C@](C)(Cc2c[nH]c3ccccc23)NC(=O)CN(C)C(=O)[C@H](Cc2cccnc2)NC(=O)[C@H](Cc2ccc(C(=O)O)cc2)NC(=O)[C@](C)(CO)NC(=O)[C@H](Cc2c[nH]c3c(Cl)cccc23)NC(=O)[C@H](Cc2ccncc2)NC(=O)[C@H](CC(N)=O)NC(=O)[C@H]2CCCN2C(=O)[C@H]([C@@H](C)c2c[nH]c3ccccc23)NC(=O)[C@H](CN2CCNCC2)NC(=O)[C@H](Cc2ccc(O)cc2)NC1=O [SEQ ID NO. 226] ({CH2CO}-[Ahp(2)]Y[Ala(piperazin-1-yl)][Trp(βS-Me)][dP]N[4Pal][Trp(7-Cl)][αMeS][Phe(4-COOH)][3Pal][Sar][αMeW]C-NH2; thioether N-14) here?
Answer: The IC50 was 1.16 nM.

Question: CCCCC[C@@H]1NC(=O)[C@@H]2CC[C@@H](C2)NC(=O)[C@H]([C@@H](C)c2c[nH]c3c(OC)cccc23)NC(=O)CN(C)C(=O)[C@H](Cc2ccc(C(N)=O)cc2)NC(=O)[C@H](Cc2ccc(C(N)=O)cc2)NC(=O)[C@](C)(CO)NC(=O)[C@H](Cc2c[nH]c3c(C#N)cccc23)NC(=O)[C@H](Cc2ccc(C(=O)O)cc2)NC(=O)[C@H](CC(N)=O)NC(=O)[C@H]2C[C@H](O)CN2C(=O)[C@H](Cc2c[nH]c3ccccc23)NC(=O)[C@H]([C@@H](C)O)NC(=O)[C@H]([C@@H](C)c2ccncc2)NC1=O [SEQ ID NO. 234] (cyclo([Ahp(2)][4Pal(3S-Me)]TW[dHyp]N[Phe(4-COOH)][Trp(7-CN)][αMeS][Phe(4-CONH2)][Phe(4-CONH2)][Sar][Trp(βS-Me,7-OMe)][X1])) was tested. Which Kd did it give?
Answer: Its Kd is 0.24 nM.

Question: Which IC50 does the source give for CCCCC[C@@H]1NC(=O)CSC[C@@H](C(N)=O)NC(=O)[C@](C)(Cc2c[nH]c3ccccc23)NC(=O)CN(C)C(=O)[C@H](Cc2c[nH]cn2)NC(=O)[C@H](Cc2ccc(C(=O)O)cc2)NC(=O)[C@](C)(CO)NC(=O)[C@H](Cc2ccc3ccccc3c2)NC(=O)[C@H](Cc2ccc(C(=O)O)cc2)NC(=O)[C@H](CC(N)=O)NC(=O)[C@H]2CCCN2C(=O)[C@H]([C@@H](C)c2c[nH]c3ccccc23)NC(=O)[C@H](CO)NC(=O)[C@H](Cc2ccncc2)NC1=O [SEQ ID NO. 237] ({CH2CO}-[Ahp(2)][4Pal]S[Trp(βS-Me)][dP]N[Phe(4-COOH)][2Nal][αMeS][Phe(4-COOH)]H[Sar][αMeW]C-NH2; thioether N-14) here?
Answer: The IC50 was 13 nM.

Question: C[C@@H](c1c[nH]c2ccccc12)[C@@H]1NC(=O)[C@H](CN)NC(=O)[C@H](Cc2ccncc2)NC(=O)[C@H](CCCCN=[N+]=[N-])NC(=O)CSC[C@@H](C(N)=O)NC(=O)[C@](C)(Cc2c[nH]c3ccccc23)NC(=O)CN(C)C(=O)[C@H](Cc2ccc(CN)cc2)NC(=O)[C@H](Cc2ccc(C(=O)O)cc2)NC(=O)[C@](C)(CO)NC(=O)[C@H](Cc2c[nH]c3c(Cl)cccc23)NC(=O)[C@H](Cc2ccncc2)NC(=O)[C@H](CC(N)=O)NC(=O)[C@H]2CCCN2C1=O [SEQ ID NO. 245] ({CH2CO}-[Lys(N3)][4Pal][Dap][Trp(βS-Me)][dP]N[4Pal][Trp(7-Cl)][αMeS][Phe(4-COOH)][Phe(4-CH2NH2)][Sar][αMeW]C-NH2; thioether N-14) was tested. Which IC50 did it give?
Answer: Its IC50 is 0.95 nM.
